One assay has as its system SU-DHL-4 cells. The assay is described as follows: Inhibitory effect on cell viability in SU-DHL-4 cell line (Test Example 1). It is filed as cell-based, human. Conditions: 72 hours; for IC50: SU-DHL-4 (wild type) cells, calculated using the measurement results of test example 1, read-out: SU-DHL-4 WT IC50; for IC90: SU-DHL-4 cells, Cell Counting Kit-8, concentration showing 90% inhibition of cell viability, read-out: SU-DHL-4 Cell Viability Inhibition Rate IC90. The gist of the method:
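SU-DHL-4 cells were grown at 37° C. under 5% CO2 in RPMI1640 with 10 vol % heat-inactivated FBS plus penicillin/streptomycin, seeded and precultured for 18 to 25 hours, then exposed to test compound at 0.1 vol % DMSO for 72 hours. Viability was read with Cell Counting Kit-8 by absorbance at 450 nm.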

A further assay concerns DCAF16 KO SU-DHL-4 cells. Put plainly: Inhibitory effect on cell viability using SU-DHL-4 DCAF16 knock out (KO) cell line (Test Example 6). It is filed as cell-based, human. To be noted: for Activity Attenuation Ratio: (SU-DHL-4 DCAF16 KO IC50)/(SU-DHL-4 WT IC50); for IC50: DCAF16 KO SU-DHL-4 cells, 72 hours, Cell Counting Kit-8, 50% inhibition of cell viability. The gist of the method: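 SU-DHL-4 DLBCL cells carrying lentiviral Cas9 plus DCAF16-targeting sgRNA (three KO strains; non-targeting control strain), seeded 2000 cells/well, pre-cultured 18–25 h, then given 9-step compound dilutions (0.1% DMSO final) for 72 h at 37° C. Viability read by CCK-8 colorimetric assay.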
A general note: Tetrazolium assays rely on reduction of a dye to a coloured formazan, in cell work by metabolically active cells.

Here are results for eight compounds from US20220378923A1, “BET DEGRADER” (KYOWA KIRIN CO., LTD., priority 2019, published 2022).

SMILES strings stand for the structures. Where two headings read alike, the source gives them in different places.

Regarding `CCC(=O)N1c2ccccc2[C@H](Nc2ccc(C(=O)NCCCNC(=O)c3ccc(N[C@@H]4C[C@H](C)N(C(=O)CC)c5ccccc54)cc3)cc2)C[C@@H]1C` (relative stereo) [Compound 1a, N,N′-(Propane-1,3-diyl)bis(4-{[(2S*,4R*)-2-methyl-1-propionyl-1,2,3,4-tetrahydroquinolin-4-yl]amino}benzamide)], the IC50 in the assay with SU-DHL-4 cells (Homo sapiens) is 1.13 nM; in the assay with DCAF16 KO SU-DHL-4 cells (Homo sapiens) it was 68.7 nM. Further, the “Activity Attenuation Ratio” value with DCAF16 KO SU-DHL-4 cells is recorded as 61.
`CCC(=O)N1c2ccccc2[C@H](Nc2ccc(NC(=O)CCCC(=O)Nc3ccc(Cn4cc(-c5c(C)noc5C)ccc4=O)cc3)cc2)C[C@@H]1C` [Compound 17a, N^1-(4-((5-(3,5-Dimethylisoxazol-4-yl)-2-oxopyridin-1(2H)-yl)methyl)phenyl)-N5-(4-(((2S,4R)-2-methyl-1-propionyl-1,2,3,4-tetrahydroquinolin-4-yl)amino)phenyl)glutaramide]: the IC50 is 0.1 nM in the assay on SU-DHL-4 cells (Homo sapiens) and 182 nM in the assay with DCAF16 KO SU-DHL-4 cells (Homo sapiens). Also, in the assay on SU-DHL-4 cells (Homo sapiens), the IC90 was found to be 0.16 nM. Moreover, the “Activity Attenuation Ratio” value with DCAF16 KO SU-DHL-4 cells came out at 1895.
With `CCC(=O)N1c2ccccc2[C@H](Nc2ccc(NC(=O)CNC(=O)N[C@H]3CC[C@H](N[C@@H]4C[C@H](C)N(C(=O)CC)c5ccccc54)CC3)cc2)C[C@@H]1C` [Compound 8j, 2-(3-((1R,4R)-4-(((2S,4R)-2-Methyl-1-propionyl-1,2,3,4-tetrahydroquinolin-4-yl)amino)cyclohexyl)ureido)-N-(4-(((2S,4R)-2-methyl-1-propionyl-1,2,3,4-tetrahydroquinolin-4-yl)amino)phenyl)acetamide], in the assay with SU-DHL-4 cells, the IC50 is 0.29 nM and the IC90 was determined as 0.5 nM. In addition, in the assay with DCAF16 KO SU-DHL-4 cells, the “Activity Attenuation Ratio” value is given as 767 and inhibition was half-maximal at 228 nM (IC50).
In the case of `Cc1sc2c(c1C)C(c1ccc(C(=O)N3CCC(NC(=O)c4ccc(C5=N[C@@H](CC(=O)OC(C)(C)C)c6nnc(C)n6-c6sc(C)c(C)c65)cc4)CC3)cc1)=NCc1nnc(C)n1-2` [Compound 14p, tert-Butyl (S)-2-(2,3,9-trimethyl-4-(4-((1-(4-(2,3,9-trimethyl-6H-thieno[3,2-f][1,2,4]triazolo[4,3-a][1,4]diazepin-4-yl)benzoyl)piperidin-4-yl)carbamoyl)phenyl)-6H-thieno[3,2-f][1,2,4]triazolo[4,3-a][1,4]diazepin-6-yl)acetate], the values for the half-maximal inhibitory concentration (IC50) in the assay on SU-DHL-4 cells (Homo sapiens) and with DCAF16 KO SU-DHL-4 cells (Homo sapiens) were 1 nM and 407 nM, respectively. Besides, the “Activity Attenuation Ratio” value in the assay on DCAF16 KO SU-DHL-4 cells stood at 408.
As to `CCC(=O)N1c2ccccc2[C@H](Nc2ccc(NC(=O)C3CN(C(=O)C4CCN(Cc5cc(O)cc(-c6c(C)noc6C)c5)CC4)C3)cc2)C[C@@H]1C` [Compound 12b, 1-(1-(3-(3,5-Dimethylisoxazol-4-yl)-5-hydroxybenzyl)piperidine-4-carbonyl)-N-(4-(((2S,4R)-2-methyl-1-propionyl-1,2,3,4-tetrahydroquinolin-4-yl)amino)phenyl)azetidine-3-carboxamide], the values for the IC50 with SU-DHL-4 cells (Homo sapiens) and in the assay with DCAF16 KO SU-DHL-4 cells (Homo sapiens) were 2.83 nM and above 10000 nM, respectively. In the assay on DCAF16 KO SU-DHL-4 cells, the “Activity Attenuation Ratio” value is above 3526.
`Cc1sc2c(c1C)C(c1ccc(NC(=O)C#CCNC(=O)c3ccc(C4=NCc5nnc(C)n5-c5sc(C)c(C)c54)cc3)cc1)=NCc1nnc(C)n1-2` [Compound 14e, N-(4-Oxo-4-((4-(2,3,9-trimethyl-6H-thieno[3,2-f][1,2,4]triazolo[4,3-a][1,4]diazepin-4-yl)phenyl)amino)but-2-yn-1-yl)-4-(2,3,9-trimethyl-6H-thieno[3,2-f][1,2,4]triazolo[4,3-a][1,4]diazepin-4-yl)benzamide]: the concentration for half-maximal inhibition (IC50) is 0.21 nM with SU-DHL-4 cells (Homo sapiens) and 68.3 nM with DCAF16 KO SU-DHL-4 cells (Homo sapiens). For the same compound, in the assay with DCAF16 KO SU-DHL-4 cells, the “Activity Attenuation Ratio” value was found to be 332.
For the compound `CCC(=O)N1c2ccccc2[C@H](Nc2ccc(C(=O)N3CCn4c(-c5ccc(N[C@@H]6C[C@H](C)N(C(=O)CC)c7ccccc76)cc5)cnc4C3)cc2)C[C@@H]1C` [Compound 3e, 1-[(2S,4R)-2-Methyl-4-({4-[3-(4-{[(2S,4R)-2-methyl-1-propionyl-1,2,3,4-tetrahydroquinolin-4-yl]amino}phenyl)-5,6,7,8-tetrahydroimidazo[1,2-a]pyrazine-7-carbonyl]phenyl}amino)-3,4-dihydroquinolin-1(2H)-yl]propan-1-one], the half-maximal inhibitory concentration (IC50) with SU-DHL-4 cells (Homo sapiens) is 0.1 nM; in the assay with DCAF16 KO SU-DHL-4 cells (Homo sapiens) it was 951 nM. The “Activity Attenuation Ratio” value in the assay on DCAF16 KO SU-DHL-4 cells is 9515.
Take `CCC(=O)N1c2ccccc2[C@H](Nc2ccc(NC(=O)CCNC(=O)c3ccc(N[C@@H]4C[C@H](C)N(C(=O)CC)c5ccccc54)cc3)cc2)C[C@@H]1C` (relative stereo) [Compound 2f, 4-{[(2S,4R)-2-Methyl-1-propionyl-1,2,3,4-tetrahydroquinolin-4-yl]amino}-N-{3-[(4-{[(2S*,4R*)-2-methyl-1-propionyl-1,2,3,4-tetrahydroquinolin-4-yl]amino}phenyl)amino]-3-oxopropyl}benzamide]: the half-inhibitory concentration (IC50) in the assay with SU-DHL-4 cells (Homo sapiens) was 0.09 nM; with DCAF16 KO SU-DHL-4 cells (Homo sapiens) it was 100 nM. In addition, the “Activity Attenuation Ratio” value with DCAF16 KO SU-DHL-4 cells came to 1111.

By IC50 is commonly meant the concentration that inhibits the measured activity by half. As usually defined, the IC90 is the concentration needed for an effect of 90%.
